In patent US11298354B2, “Methods of use and pharmaceutical combinations of HDAC inhibitors with BET inhibitors” (DANA-FARBER CANCER INSTITUTE, INC., priority 2016, dated 2022):

Legend:
[1] = tested on: peripheral blood mononuclear cells (PBMCs) from healthy donors; assay: Healthy donor PBMCs cultured with HDAC inhibitors, FACS; assay type: cell-based, human; settings: for percentage of CD4+FOXP3+ Tregs within PBMCs: FIG. 1C
Source text: HDAC inhibition results in tumor growth arrest in immunocompetent animal models. The effects of class I and class II HDAC inhibition on leukocytes were investigated using peripheral blood mononuclear cells (PBMCs) obtained from healthy donors.

[2] = tested on: PBMCs obtained from non-small cell lung cancer (NSCLC) patients; assay: NSCLC patient PBMCs cultured with Compound A or entinostat, FACS; settings: for expression of CD86 on CD14+ monocytes / expression of MHC class II molecules on CD14+ monocytes: 24-hour culture, FIG. 4A; for expression of CD69 activation marker on conventional CD8+ and CD4+ T cells: patient PBMC cultures, FIG. 3A, 3B
Source text: Specifically, the phenotype of CD14+CD11b+ monocytes in the peripheral blood of healthy subjects and NSCLC patients, or that of CD14-CD68+CD11b+ macrophages within disaggregated NSCLC tumors were investigated. […] Peripheral blood mononuclear cells (PBMCs) were isolated by Ficoll gradient from fresh or frozen blood samples obtained from healthy donors and consented patients under IRB-approved institutional protocols. […] Cells were then washed and were subjected to phenotypic analysis by FACS. In some experiments, these cultures were performed with purified CD14+ monocytes or CD3+ T cells after purifications from whole PBMCs.

[3] = tested on: lung adenocarcinomas of KP and TL mice; assay: 7-day treatment of KP and TL lung adenocarcinoma mice, tumor immune profiling; assay type: in vivo, mouse
Source text: Tumor-associated immune cells are important in shaping the course of tumor progression and anti-tumor immunity. The effects of an HDAC6 selective inhibitor on phenotypic and functional changes, especially in the context of tumor antigens, were investigated. Specifically, the effects of an HDAC6 selective inhibitor on immune cells infiltrating lung adenocarcinomas that spontaneously develop in fully immunocompetent genetically engineered mice harboring activating Kras^G12D mutation and concurrent p53 loss (designated as KP), or those with T790M/L858R EGFR mutations (designated TL) were studied. […] Single cell suspensions of lung tumor nodules were generated and subjected to FACS analysis to assess the proportions, phenotype and function of CD45+ immune cell subsets in the tumors isolated from both KP and TL mice.
Mice with existing adenocarcinomas were treated once daily with Compound A for seven days prior to evaluation of dissociated tumors by comprehensive multi-parameter flow cytometry. […] Such increases in the CD8:Treg ratios are often associated with enhanced anti-tumor response. […]
(§1) After incubation, cells were treated with red blood cell lysis buffer and were filtered through a 70 μm cell strainer. After centrifugation, cell pellet was re-suspended in 1×PBS/2% FBS. Cells were counted, and ˜0.5-1×10^6 cells were stained for surface markers in PBS+2% FBS for 15 minutes at 4° C. Intracellular staining was performed for Foxp3, Ki67, CTLA-4, and Bcl-2, using the Foxp3 staining buffer according to the manufacturer's instructions while the cytofix/cytoperm kit (BD Bioscience) was used for intracellular cytokine staining. Briefly, cells were stained for surface markers including CD4, CD8, CD3, followed by intracellular staining with PE-conjμgated anti-IFN-γ, BV421-conj μgated anti-TNF-α, APC-conjugated IL-2, FITC-conjugated Perforin and CD107a (where indicated), or isotype-matched mAbs after permeabilization and fixation. In all stained samples, dead cells were excluded using Live/Dead Fixable dead cell staining kit (Invitrogen). Cells were acquired on the LSR Fortessa (BD Biosciences) and were analyzed with the flowjo software (Treestar).
(§2) For intracellular cytokine detection assays, immune cells from tumors of treated or control mice were obtained after ficoll gradient separation as previously described. 1×10^6 cells were cultured with PMA (50 ng) and Ionomycin (500 ng) for 6 hours at 37° C., and GolgiPlμg (BD Pharmingen) was added for the last 5 hours of culture. For equivalent assays utilizing human PBMCs, 0.5×10^6 cells were similarly stimulated prior to analysis.
Tumor-associated macrophages (TAMs; CD45+CD11c+CD11b^lo) and CD45+CD3+CD25^lo/− T cells were sorted into 96-well plates containing 50 μl of 1×PBS with Recombinant Ribonuclease Inhibitor (Life Technologies) isolated from tumor tissues by FACS sorting. Briefly, tumor cell suspensions were incubated with live/dead fixable dye after FcγR blocking and subsequently stained with antibodies against CD45, CD3, CD8, CD11b, and CD11c. Smart-Seq2 libraries were prepared by the Broad Technology Labs and sequenced by the Broad Genomics Platform.

[4] = tested on: lung adenocarcinomas of KP mice; assay: Long-term efficacy study in KP mice; settings: I.P. once daily, MRI, FIG. 6 and 8A
Procedure: Tumor growth was monitored weekly by MRI.
For lung tumor induction, mice received 1×10^6 cfu cre-encoding adenovirus intranasally at 5-6 weeks of age. Tumor formation (typically 6-8 weeks post inoculation) and volume was confirmed by MRI and was quantified using the 3D-slicer software. […] All mice were maintained under specific pathogen-free conditions.
JQ1 was formulated in 10% DMSO and 90% of 10% 2-hydroxylpropyl β-cyclodextrin (Sigma), and was administrated to mice at 25 mg/kg I.P. daily. Vehicle control was prepared by diluting DMSO into the related drug vehicle. […] Depletion of relevant cell types was confirmed by flow cytometry one day after the second dose using peripheral blood obtained from the tail vein.

[5] = tested on: CD3+CD4+CD25hi Treg cells from spleen of wild-type mice; assay: Mouse splenic T cells and Tregs cultured with JQ1; assay type: cell-based
Source text: A combination treatment with an HDAC6 selective inhibitor and a complementary immunomodulatory agent can achieve greater levels of immune-based control of tumor growth in these NSCLC models. JQ1 was previously shown to have an anti-tumor effect in KP mice in part due to downregulation of MYC and induction of apoptosis in tumor cells. […] T cells were isolated from the spleen of wild-type mice and sorted into CD3+CD25− (T cells) or CD3+CD4+CD25hi (Treg) subsets and subsequently cultured in the presence or absence of JQ1 (1 μM). Cultures were supplemented with 100 IU/mL of recombinant IL-2. Cells were washed after two days of culture and their phenotype was evaluated by FACS. For the CSFE dilution shown in FIG. 7C, 2×10^5 CFSE-labelled purified T cells obtained from the spleen of naïve mice were co-cultured with 1.0×10^5 mitomycin C treated, T-depleted spleen cells which served as APCs. 0.5 μg of soluble anti-CD3 was then added to each well along with graded numbers of Tregs (indicated by Treg:T cell ratios).

[6] = tested on: lung adenocarcinomas of KP mice; assay: Immune profiling of KP tumor nodules after 4-6 weeks of treatment; assay type: in vivo, mouse
Procedure: For immune profiling, cohorts of mice were sacrificed after 4-6 weeks of treatment and tumor cell suspensions were subjected to FACS analysis. […] In addition, immune cells isolated from tumors of mice treated with indicated drugs were stimulated ex-vivo for 6 hours in the presence of golgi plug. […] Equivalent numbers of each of these populations were co-cultured for two days in the presence of tumor cell lysate.
as §1, §2

[7] = tested on: single cell suspensions from dissociated freshly resected NSCLC tumors; assay: Dissociated NSCLC patient tumor cell cultures, FACS; assay type: cell-based, human; settings: 2-D tumor cell cultures, FIG. 4B
Source text: DMSO was used as a control.

[8] = current clinical trials of hematologic cancers; cited from earlier work
[9] = tested on: CD14+ monocytes from patient PBMCs / allogeneic T cells; assay: Mixed lymphocyte reaction with drug-exposed CD14+ monocytes; settings: monocytes cultured 24 hours with drug, 6 days co-culture, FIG. 4D
Source text: For T cell proliferation assays, T cells were isolated from PBMCs by positive selection using T cell enrichment kit (Miltenyi Biotec) following the manufacturer's instructions. Cells were typically ˜90% pure. […] Cells were washed three times with RPMI+10% FBS, were counted, and were used as responder cells.

[10] = JQ1 1 μM, two days of culture, FIG. 7B
[11] = KP and TL mice, 7 days, FIG. 5K-5M
[12] = KP and TL mice, once daily for seven days, FIG. 5A-5B
[13] = PBMCs from healthy donors, FIG. 4C

Question: For `Nc1ccccc1NC(=O)c1ccc(CNC(=O)OCc2cccnc2)cc1` [Entinostat, entinostat, reference compound], which “percentage of CD4+FOXP3+ Tregs within PBMCs” value (from here on “percentage”) ([1]; healthy donor PBMCs, 24 hours) is on record?
Answer: The value was “effect was still present”.

Question: And the “expression of CD86 on CD14+ monocytes” value [2]?
Answer: The value was “neither addition of DMSO nor entinostat up-regulated”.

Question: What about the “expression of MHC class II molecules on CD14+ monocytes” value [2] of the same compound?
Answer: The value was “neither addition of DMSO nor entinostat up-regulated”.

Question: What about the “expression of CD69 activation marker on conventional CD8+ and CD4+ T cells” value (shortened to “expression of CD69 activation marker”) [2] of the same compound?
Answer: The value was “not”.

Question: For `O=C(NO)c1cnc(NC2(c3ccccc3)CC2)nc1` [Compound D, N-hydroxy-2-((1-phenylcyclopropyl)amino)pyrimidine-5-carboxamide], which “percentage” value ([1]; healthy donor PBMCs, 24 hours) is on record?
Answer: The value was “effect was still present”.

Question: For `O=C(CCCCCCNC(=O)c1cnc(N(c2ccccc2)c2ccccc2Cl)nc1)NO` [Compound B, 2-((2-chlorophenyl)(phenyl)amino)-N-(7-(hydroxyamino)-7-oxoheptyl)pyrimidine-5-carboxamide], which “activation of CD8 T cells (CD69 activation marker)” value ([3]; KP mice, 7 days, FIG. 5I) is on record?
Answer: The value was “increased activation”.

Question: What about the “expression of MHCII on tumor associated macrophages” value ([3]; KP mice, 7 days, FIG. 5I) of the same compound?
Answer: The value was “increased expression”.

Question: What about the “percentage” value ([1]; healthy donor PBMCs, 24 hours) of the same compound?
Answer: Its value is “reduced most significantly”.

Question: For `O=C(NO)c1cnc(NC2(c3cccc(F)c3)CCCCC2)nc1` [Compound C, 2-((1-(3-fluorophenyl)cyclohexyl)amino)-N-hydroxypyrimidine-5-carboxamide], which “percentage” value ([1]; healthy donor PBMCs, 24 hours) is on record?
Answer: Its value is “did not significantly impact”.

Question: With `CN1CCc2c(c3ccccc3n2Cc2ccc(C(=O)NO)cc2)C1` [Tubastatin, Tubastatin A, reference compound] as the compound, how does the “percentage” value ([1]; healthy donor PBMCs, 24 hours) read?
Answer: The value was “did not significantly impact”.

Question: With `Cc1sc2c(c1C)C(c1ccc(Cl)cc1)=NC(CC(=O)OC(C)(C)C)c1nnc(C)n1-2` (stereo not drawn) [JQ1] as the compound, how does the tumor growth [4] read?
Answer: Its tumor growth is “moderate”.

Question: What about the “suppressive function of Tregs vs unexposed counterparts” value ([5]; CFSE dilution, FIG. 7C) of the same compound?
Answer: The value was “less suppressive”.

Question: What about the “expression levels of Foxp3 on Tregs” value [5, 10] of the same compound?
Answer: The value was “diminished expression levels”.

Question: What about the “expression levels of PD-1 on Tregs” value [5, 10] of the same compound?
Answer: The value was “diminished expression levels”.

Question: What about the “Treg fractions/proportions in tumors” value ([6]; 4-6 weeks, FIG. 9B) of the same compound?
Answer: Its value is “more substantial reduction”.

Question: With `O=C(CCCCCCNC(=O)c1cnc(N(c2ccccc2)c2ccccc2)nc1)NO` [Compound A, 2-(diphenylamino)-N-(7-(hydroxyamino)-7-oxoheptyl)pyrimidine-5-carboxamide] as the compound, how does the “expression of CD86 on CD14-CD68+CD11b+ macrophages” value [7] read?
Answer: Its value is “increased expression”.

Question: What about the “expression of MHC class II on CD14-CD68+CD11b+ macrophages” value [7] of the same compound?
Answer: Its value is “increased expression”.

Question: What about the tumor growth [4] of the same compound?
Answer: Its tumor growth is “marginal delay”.

Question: And the “expression levels of CD86 on CD11c+CD11b lo tumor-associated macrophages” value [3, 11]?
Answer: The value was “significantly elevated expression levels”.

Question: And the “expression levels of MHC class II on CD11c+CD11b lo tumor-associated macrophages” value [3, 11]?
Answer: Its value is “significantly elevated expression levels”.

Question: What about the “CD4+Foxp3+ Treg cells among lymphoid cells” value [3, 12] of the same compound?
Answer: The value was “significant decreases”.

Question: What about the “frequency of tumor-infiltrating CD8+ T cells” value [3, 12] of the same compound?
Answer: The value was “modest increases”.

Question: What about the “genes associated with T cell activation and effector function (Cd69, Sell, Cd44, Prf1) in tumor-infiltrating T cells” value ([3]; KP mice, single cell RNA-Seq, vs vehicle, FIG. 5N) of the same compound?
Answer: The value was “up-regulated”.

Question: And the “inhibitory receptor molecule expression on tumor-infiltrating T cells” value ([3]; PD-1, CTLA-4, TIM3, seven days, FIG. 5D-5G)?
Answer: The value was “no substantial phenotypic changes”.

Question: And the “secretion of IFN-γ and TNF-α by tumor-infiltrating CD8+ T cells” value ([3]; ex-vivo stimulation, vs vehicle, FIG. 5H)?
Answer: Its value is “enhanced capacity to secrete”.

Question: What about the “CD69 activation marker on tumor-infiltrating CD8+ T cells” value ([3]; seven days treatment, vs vehicle, FIG. 5H) of the same compound?
Answer: The value was “increased expression levels”.

Question: And the “expression of genes associated with MHC class II (Cd74, H2-Aa) in TAMs” value ([3]; single cell RNA-Sequencing, vs control mice, FIG. 5N)?
Answer: Its value is “higher expression”.

Question: And the safety profile [8]?
Answer: The safety profile was “favorable safety profile”.

Question: What about the “MHC class II molecules on TAMs” value ([6]; FIG. 9G) of the same compound?
Answer: Its value is “markedly promoted the up-regulation”.

Question: What about the “CD86 on TAMs” value ([6]; FIG. 9H) of the same compound?
Answer: Its value is “markedly promoted the up-regulation”.

Question: And the “induction of allogeneic T cell proliferative responses by exposed CD14+ monocytes” value [9]?
Answer: The value was “superior”.

Question: What about the “expression of CD86 on monocytes” value [1, 13] of the same compound?
Answer: The value was “increased expression”.

Question: What about the “expression of MHC class II on monocytes” value [1, 13] of the same compound?
Answer: The value was “increased expression”.

Question: What about the “expression of CD69 activation marker” value ([1]; healthy donor PBMC cultures, 24 hours, FIG. 3C, 3D) of the same compound?
Answer: The value was “substantially up-regulated”.

Question: And the “percentage” value ([1]; healthy donor PBMCs, 24 hours)?
Answer: Its value is “reduced most significantly”.

Question: And the “phospho-STAT3 expression on T cells” value ([1]; healthy donor PBMCs, FIG. 3E)?
Answer: The value was “increase”.

Question: What about the “expression of CD86 on CD14+ monocytes” value [2] of the same compound?
Answer: The value was “up-regulated”.

Question: And the “expression of MHC class II molecules on CD14+ monocytes” value [2]?
Answer: Its value is “up-regulated”.

Question: What about the “expression of CD69 activation marker” value [2] of the same compound?
Answer: Its value is “substantially up-regulated”.
